These results are taken from patent publication US20160051706A1, “PROCESS FOR PRODUCING A COMPLEX OF A LANTHANIDE WITH A MACROCYCLIC LIGAND” (AGFA HEALTHCARE, priority 2013, published 2016).

Several values for one entry are separate records, joined by “and”; a condition that tells them apart may be missing. Equal values may be shown once.

The nature of data set [1]: Moisture content of DOTA (Karl Fischer) over time at controlled relative humidity. The data set is classed as physicochemical. Conditions: Temp. 20 ± 2° C. Here is the method: The measurement of the moisture content in DOTA is performed as described in the semi-micro method of Karl Fischer (Fischer, Karl-Pharm. Eur. Section 2.5.12). This section and the next section illustrates how the moisture content in a batch of a macrocyclic ligand changed when the product was exposed to different conditions of relative humidity. The moisture content in the samples was measured using methods known to those skilled in the art. In this example, the measurement of the content of moisture in DOTA was performed as described above. Two samples of DOTA were kept in conditions of relative humidity (RH)=30+5% at a temperature of Temp=20+2° C. From these samples, small samples were taken at different times (T0=beginning of the experiment; T30=T0+30 min; T90=T0+90 min; and […]=T0+300 min) and the moisture content was measured as described above. Each experiment (Exp.) was performed twice and the average of each (Ind.) was determined (Avg.). This measurement, as the previous one, illustrated how the moisture content in a batch of a macrocyclic ligand was affected by the environmental relative humidity conditions. Therefore, the previous experiments were repeated in the same conditions but at a RH=75+5%. Again, each experiment (Exp.) was performed twice and the average of each (Ind.) was determined (Avg.).

For data set [2] the following is noted: LD50 better than for free DOTA; cited from earlier work.

As to `O=C(O)CN1CCN(CC(=O)O)CCN(CC(=O)O)CCN(CC(=O)O)CC1` [DOTA, 1,4,7,10-tetraazacyclododecane-1,4,7,10-tetraacetic acid], the “Moisture content DOTA, Avg.” value in data set [1] (T0, RH 30 ± 5%) was 4.929 wt. % and 5.25 wt. %; in data set [1] (T0, RH 75 ± 5%) it was 4.94 wt. % and 5.25 wt. %; in data set [1] (T30 (T0+30 min), RH 30 ± 5%), 4.98 wt. % and 6.20 wt. %; in data set [1] (T30 (T0+30 min), RH 75 ± 5%), 6.71 wt. % and 6.65 wt. %; in data set [1] (T90 (T0+90 min), RH 30 ± 5%), 5.00 wt. % and 6.12 wt. %; in data set [1] (T90 (T0+90 min), RH 75 ± 5%), 7.34 wt. % and 6.88 wt. %. Also, the “Moisture content DOTA, Avg.” value in data set [1] (T300 (T0+300 min), RH 30 ± 5%) was 5.15 wt. % and 6.19 wt. %; in data set [1] (T300 (T0+300 min), RH 75 ± 5%), 5.86 wt. % and 4.36 wt. %. For the same molecule, the “Moisture content DOTA, Ind.” value in data set [1] (T0, RH 30 ± 5%) was 5.150 wt. % and 4.941 wt. % and 4.929 wt. % and 5.346 wt. %; in data set [1] (T0, RH 75 ± 5%), 5.150 wt. % and 4.941 wt. % and 4.929 wt. % and 5.346 wt. %; in data set [1] (T30 (T0+30 min), RH 30 ± 5%) it was 6.247 wt. % and 4.944 wt. % and 5.020 wt. % and 6.154 wt. %; in data set [1] (T30 (T0+30 min), RH 75 ± 5%), 6.851 wt. % and 6.734 wt. % and 6.694 wt. % and 6.449 wt. %; in data set [1] (T90 (T0+90 min), RH 30 ± 5%) it was 6.170 wt. % and 5.038 wt. % and 4.954 wt. % and 6.062 wt. %; in data set [1] (T90 (T0+90 min), RH 75 ± 5%), 6.789 wt. % and 7.475 wt. % and 7.200 wt. % and 6.962 wt. %. In addition, the “Moisture content DOTA, Ind.” value was 6.268 wt. % and 5.178 wt. % and 5.114 wt. % and 6.106 wt. % in data set [1] (T300 (T0+300 min), RH 30 ± 5%); 4.609 wt. % and 5.914 wt. % and 5.813 wt. % and 4.111 wt. % in data set [1] (T300 (T0+300 min), RH 75 ± 5%).

For the molecule `O=C([O-])CN1CCN(CC(=O)[O-])CCN(CC(=O)[O-])CCN(CC(=O)[O-])CC1.[Ca+2].[Na+].[Na+]` [Na2 [Ca-DOTA]], the “LD50 of Na2 [Ca-DOTA] relative to free DOTA” value in data set [2] is listed as “at least 40 times”.
